Experimental data: patent US20060058366A1, “Jnk inhibitor” (KYOWA HAKKO KOGYO CO., LTD., priority 2002, published 2006)

What follows are compounds tested against T1, mouse JNK 3 (Mus musculus, UniProt Q61831) (assay: JNK 3 inhibitory activity (33P incorporation into GST-JSAP1 fused protein)). Details: crude extract of COS-7 cells expressing mouse JNK 3; 3 μmol/L ATP; GST-JSAP1 substrate; 30° C., 15 minutes; read-out: JNK3 Inhibitory Activity (IC50/μM).
T1 construct: made in house; host or cells: COS-7 cells (crude extract)
Assay type: biochemical
Experimental: A crude extract of COS-7 cells in which mouse JNK 3 was expressed was used as the transcription enzyme solution. Glutathione-S-transferase (GST)-JSAP 1 (JNK/SAPK associated protein 1) fused protein was expressed in E. coli and its crude extract was subjected to an affinity purification using a column of Glutathione Sepharose 4B. An enzyme solution (3 μL), 50 μL of a reaction solution containing a test compound [in the reaction solution, (physiological saline)/(DMSO solution containing the test compound) (ratio by weight) was adjusted to 99/1], 50 μL of a substrate solution (final concentration: 3 μmol/L ATP), 0.75 μCi/ml[γ-^33P]-ATP and 66 μg/mL (1.5 μmol/L) of GST-JSAP1 fused protein reaction solution were incubated at 30° C. for 15 minutes. The reaction was stopped by addition of ethanol whereupon the GST-JSAP1 fused protein was precipitated. The precipitated protein was filtered using a Filter Mate Harvester (Packard Instruments) and adsorbed to a Unifilter Plate GF/B. Incorporation of radiation activity from [γ-^33P1-ATP to the GST-JSAP1 fused protein was measured using TopCount-HTS (Packard Instruments) to calculate enzyme inhibition activity. The enzyme inhibitory activity was calculated by a Probit (L) method using a statistic analysis software SAS (Release 6.12; SAS Institute, Inc.) as the 50% enzyme activity inhibiting concentration (IC50).

T1 sequence (Q61831 whole entry, the tested form may be a part): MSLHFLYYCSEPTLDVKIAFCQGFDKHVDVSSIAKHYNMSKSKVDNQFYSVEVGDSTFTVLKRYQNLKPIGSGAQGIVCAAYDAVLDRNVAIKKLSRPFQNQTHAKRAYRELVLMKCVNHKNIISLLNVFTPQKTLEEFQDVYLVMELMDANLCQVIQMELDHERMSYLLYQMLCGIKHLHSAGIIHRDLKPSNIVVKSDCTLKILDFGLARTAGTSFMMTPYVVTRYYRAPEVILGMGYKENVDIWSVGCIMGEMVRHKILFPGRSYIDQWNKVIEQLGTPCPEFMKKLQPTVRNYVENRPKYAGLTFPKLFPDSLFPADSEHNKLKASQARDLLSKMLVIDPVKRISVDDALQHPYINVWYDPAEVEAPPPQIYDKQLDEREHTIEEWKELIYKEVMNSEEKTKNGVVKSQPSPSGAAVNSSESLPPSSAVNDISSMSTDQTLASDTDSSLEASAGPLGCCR

Compound | IC50
O=C(Nc1ccccc1/C=C/c1n[nH]c2ccc(/C=C/CO)cc12)c1ccccc1 [Compound 25, (E)-3-[2-(2-Benzoylaminophenyl)vinyl]-(E)-5-(3-hydroxy-1-propen-1-yl)-1H-indazole] | < 0.5 µM
O=C(O)c1ccc2[nH]nc(/C=C/c3cccnc3)c2c1 [Compound 19, (E)-3-[2-(3-Pyridyl)vinyl]-1H-indazole-5-carboxylic acid] | < 0.5 µM
O=C(CCS(=O)(=O)c1ccccc1)Nc1ccc2[nH]nc(/C=C/c3cccnc3)c2c1 [Compound 7, (E)-5-[3-(Phenylsulfonyl)propaneamido]-3-[2-(3-pyridyl)vinyl]-1H-indazole] | 1.2 µM
O=C(O)/C=C/c1ccc2[nH]nc(/C=C/c3cccnc3)c2c1 [Compound 15, (E)-5-(2-Carbonxyvinyl)-(E)-3-[2-(3-pyridyl)vinyl]-1H-indazole] | < 0.5 µM
O=C(O)c1ccc(C(=O)Nc2ccc3[nH]nc(/C=C/c4cccnc4)c3c2)cc1 [Compound 12, (E)-5-(4-Carboxybenzamido)-3-[2-(3-pyridyl)vinyl]-1H-indazole] | < 0.5 µM
O=C(Nc1ccc2[nH]nc(/C=C/c3cccnc3)c2c1)c1cnccn1 [Compound 9, (E)-5-(Pyrazinecarboxamido)-3-[2-(3-pyridyl)vinyl]-1H-indazole] | 0.55 µM
O=C(Nc1ccccc1/C=C/c1n[nH]c2ccc(C#CCO)cc12)c1ccccc1 [Compound 26, (E)-3-[2-(2-Benezoylaminophenyl)vinyl]-5-(3-hydroxy-1-propyn-1-yl)-1H-indazole] | < 0.5 µM
C(=C\c1n[nH]c2ccccc12)/c1cccnc1 [Compound 2, (E)-3-[2-(3-Pyridyl)vinyl]-1H-indazole] | < 0.5 µM
CN(C)CCOc1ccc(/C=C/c2n[nH]c3ccccc23)cc1 [Compound 1] | < 0.5 µM
(E)-3-[2-(Benzamidopyridin-3-yl)vinyl]-(E)-5-(2-carboxyvinyl)-1H-indazole [Compound 23] | < 0.5 µM

Results, then the compound that gave them:

IC50 | Compound
< 0.5 µM | O=C(Cc1c[nH]c2ccccc12)Nc1ccc2[nH]nc(/C=C/c3cccnc3)c2c1 [Compound 6, (E)-5-(3-Indolyl)acetamide-3-[2-(3-pyridyl)vinyl]-1H-indazole]
< 0.5 µM | O=C(O)c1ccc(C(=O)Nc2ccc3[nH]nc(/C=C/c4cnccc4NC(=O)c4ccccc4)c3c2)cc1 [Compound 24, (E)-3-[2-(4-Benzamidopyridin-3-yl)vinyl]-5-(4-carboxybenzamido)-1H-indazole]
< 0.5 µM | OCC#Cc1ccc2[nH]nc(/C=C/c3cccnc3)c2c1 [Compound 18, (E)-5-(3-hydroxy-1-propyn-1-yl)-3-[2-(3-pyridyl)vinyl]-1H-indazole]
< 0.5 µM | O=C(Nc1ccc2[nH]nc(/C=C/c3cccnc3)c2c1)c1ccncc1 [Compound 11, (E)-5-(4-Pyridinecarboxamido)-3-[2-(3-pyridyl)vinyl]-1H-indazole]
< 0.5 µM | OCC=Cc1ccc2[nH]nc(/C=C/c3cccnc3)c2c1 [Compound 21, (E)-5-(3-Hydroxy-1-propen-1-yl)-3-[2-(3-pyridyl)vinyl]-1H-indazole]
< 0.5 µM | O=C(O)c1ccc(/C=C/c2ccc3[nH]nc(/C=C/c4cccnc4)c3c2)cc1 [Compound 17, (E)-5-[2-(4-Carboxyphenyl)vinyl]-(E)-3-[2-(3-pyridyl)vinyl]-1H-indazole]
< 0.5 µM | COC(=O)/C=C/c1ccc2[nH]nc(/C=C/c3cccnc3)c2c1 [Compound 14, (E)-5-(2-Methoxycarbonylvinyl)-(E)-3-[2-(3-pyridyl)vinyl]-1H-indazole]

What follows are compounds tested on PC12 cells (assay: Apoptosis suppressive activity by removal of NGF in NGF-differentiated PC12 cells (MTT)). Details: 3 μmol/L test compound; 24 hours without NGF; cells with NGF not removed = 100%, NGF removed = 0%.
Assay type: cell-based
Experimental: PC12 cells prepared in 6.0×10^4/mL by Roswell Park Memorial Institute's Medium (RPMI) 1640 medium containing 10% of horse serum, 5% of bovine fetal serum and penicillin/streptomycin were disposed in a 24-well multidish (NulgeNunc International; No. 143982) coated with polyethyleneimine in an amount of 0.5 mL for each well. After the cells were adhered to the dish, the medium was removed, an RPMI 1640 medium containing […] of 1% horse serum, penicillin/streptomycin and 50 ng/mL of mouse nerve growth factor (NGF) was added and the cells were incubated in a carbon dioxide gas incubator at 37° C. for 9 to 12 days, causing the cells to differentiate into a nerve cell form. A dilution series of DMSO solution of the test compound was prepared, and diluted with a medium containing 1% horse serum and penicillin/streptomycin and containing no NGF (final DMSO concentration: 0.1%). The medium was removed, washing was conducted twice using a medium containing 0.5 mL of the test compound, 1% horse serum, and penicillin/streptomycin, and containing no NGF, 0.5 mL of the above-medium was added once again to each well and then incubation was conducted in a carbon dioxide gas incubator at 37° C. for 24 hours. The medium was removed, 0.2 mL of a medium containing 1% horse serum, penicillin/streptomycin, NGF and 1 mg/mL 3-(4,5-dimethyl-2-thiazolyl)-2,5-diphenyl-2H-tetrazolium bromide (MTT) containing no test compound, was added to each well and incubation was conducted in a carbon dioxide gas incubator at 37° C. for 4 hours. DMSO (0.6 mL) was added to each well and 0.2 mL thereof was transferred to a 96-well multititer plate (Nulge Nunc International; No. 167008) and absorbances at 590 nm and 630 nm were measured using a microplate reader EL 3401 (Bio-Tek). The absorbance differential was calculated by subtracting the […] for each well. The apoptosis suppressive activity (%) of test compound were calculated by comparing the absorbance differential obtained from cells treated with test compound of known concentration with the value in the cells from which no NGF was removed and the value in the cells from which NGF was removed. Here, the value in the cells from which no NGF was removed was set at 100% while the value in the cells from which NGF was removed was set at 0%.

Compound | Apoptosis Suppressive Activity in 3 μmol/L of Test Compound (%)
C(=C\c1n[nH]c2ccccc12)/c1cccnc1 [Compound 2, (E)-3-[2-(3-Pyridyl)vinyl]-1H-indazole] | 44%
CN(C)CCOc1ccc(/C=C/c2n[nH]c3ccccc23)cc1 [Compound 1] | 63%
O=C(Nc1ccc2[nH]nc(/C=C/c3cccnc3)c2c1)c1ccccc1 [Compound 4, (E)-5-Benzamido-3-[2-(3-pyridyl)vinyl]-1H-indazole] | 64%
COC(=O)/C=C/c1ccc2[nH]nc(/C=C/c3cccnc3)c2c1 [Compound 14, (E)-5-(2-Methoxycarbonylvinyl)-(E)-3-[2-(3-pyridyl)vinyl]-1H-indazole] | 62%
